EC50 and selectivity ratio data for 22 molecules are collected here from ChEMBL document CHEMBL2203037, “Synthesis and Anti-influenza A Virus Activity of 2,2-Dialkylamantadines and Related Compounds” (ACS Med Chem Lett, 2012).

Data set [1] concerns Influenza A virus. As to the kind of experiment: Antiviral activity against amantadine-resistant Influenza A virus (A/PR/8/34 (H1N1)) infected in MDCK cells assessed as virus-induced cytopathic effect measured 3 days post infection by microscopic analysis. The settings on record: A/Puerto Rico/8/1934(H1N1), 72 h. It counts as functional, organism-based. (In general: Cytopathic effects are the visible damage that an infection or toxin causes in cultured cells.)

The test system of data set [2] is Influenza B virus. As to the kind of experiment: Antiviral activity against amantidine and rimantadine-resistant Influenza B virus (B/HK/5/72) infected in MDCK cells assessed as virus-induced cytopathic effect measured 3 days post infection by microscopic analysis. It counts as functional, cell-based. The settings on record: B/Hong Kong/05/1972, MDCK, 72 h.
Data set [3] concerns Influenza B virus. As to the kind of experiment: Antiviral activity against amantidine and rimantadine-resistant Influenza B virus (B/HK/5/72) infected in MDCK cells assessed as virus-induced cytopathic effect by MTS assay. It counts as functional, cell-based. The settings on record: B/Hong Kong/05/1972, MDCK.
In data set [4] the test system is Influenza A virus. As to the kind of experiment: Antiviral activity against amantadine-resistant Influenza A virus (A/PR/8/34 (H1N1)) infected in MDCK cells assessed as virus-induced cytopathic effect by MTS assay. It counts as functional, organism-based, A/Puerto Rico/8/1934(H1N1).
Data set [5] is described as follows: Selectivity index, ratio of CC50 for dog MDCK cells to EC50 for amantadine-resistant Influenza A virus (A/PR/8/34 (H1N1)). It counts as toxicity, cell-based. As to conditions: read-out: Ratio CC50/EC50.
The mark [6] stands for this setting: Influenza A virus, A/Puerto Rico/8/1934(H1N1), MDCK.

Usually EC50 stands for the midpoint of the concentration-response curve.

Turning to `CCC1(CC)C2CC3CC(C2)CC1(NC)C3`, the EC50 in the data set with Influenza A virus [1] was 4 µM; in the data set with Influenza B virus [2] it was more than 100 µM; with Influenza B virus [3], more than 100 µM.
Consider `CCCC1(CCC)C2CC3CC(C2)CC1(N(C)C)C3`, for which the EC50 in the data set on Influenza A virus [1] is 6 µM; in the data set with Influenza B virus [2], more than 100 µM; with Influenza A virus [4] (setting [6]), 6.7 µM; in the data set with Influenza B virus [3], more than 100 µM.
In the case of `CN(C)C12CC3(C)CC(CC3(C)C1)C2(C)C`, the EC50 in the data set with Influenza A virus [1] is 5.8 µM; in the data set on Influenza B virus [2] it was more than 100 µM; in the data set with Influenza A virus [4] (setting [6]) it was 5.7 µM; with Influenza B virus [3], more than 100 µM.
`CC(C)C1C2CC3CC(C2)CC1(N(C)C)C3` (centres undefined): the EC50 was 5.1 µM in the data set with Influenza A virus [1], more than 100 µM with Influenza B virus [2], 6 µM with Influenza A virus [4] (setting [6]) and more than 50 µM with Influenza B virus [3].
In the case of `CC1(C)C2CC3CC(C2)CC1(N)C3`, the EC50 is 15 µM in the data set with Influenza A virus [1], more than 100 µM with Influenza B virus [2], 10 µM in the data set on Influenza A virus [4] (setting [6]) and more than 100 µM in the data set on Influenza B virus [3].
As to `CCC1(CC)C2CC3CC(C2)CC1(N)C3`, the EC50 was 1.2 µM in the data set with Influenza A virus [1], more than 100 µM in the data set on Influenza B virus [2], 1.7 µM with Influenza A virus [4] (setting [6]) and more than 100 µM with Influenza B virus [3]. In data set [5], the selectivity ratio is more than 50.
Turning to `CCCC1(CCC)C2CC3CC(C2)CC1(N)C3`, the EC50 in the data set with Influenza A virus [1], in the data set on Influenza B virus [2], in the data set on Influenza A virus [4] (setting [6]) and in the data set with Influenza B virus [3] was more than 100 µM in each case.
Regarding `CC(C)C1C2CC3CC(C2)CC1(N)C3` (centres undefined), the EC50 in the data set with Influenza A virus [1] is 5.8 µM; in the data set on Influenza B virus [2], more than 100 µM; in the data set with Influenza A virus [4] (setting [6]), 1.2 µM; in the data set on Influenza B virus [3], more than 100 µM.
Consider `NC12CC3CC(CC(C3)C13CCCCC3)C2`, for which the EC50 in the data set with Influenza A virus [1] was 1.1 µM; in the data set on Influenza B virus [2] it was more than 100 µM; in the data set with Influenza A virus [4] (setting [6]) it was 0.9 µM; in the data set with Influenza B virus [3], more than 100 µM.
Turning to `CC12CC3CC1(C)CC(N)(C2)C3(C)C`, the EC50 in the data set with Influenza A virus [1] was 4.6 µM; with Influenza B virus [2], more than 100 µM; in the data set with Influenza A virus [4] (setting [6]), 4.5 µM; in the data set with Influenza B virus [3], more than 100 µM.
For `CN(C)C12CC3CC(CC(C3)C1(C)C)C2`, the EC50 with Influenza A virus [1] was 4 µM; in the data set on Influenza B virus [2], more than 100 µM; with Influenza A virus [4] (setting [6]), 4.8 µM; in the data set on Influenza B virus [3], more than 100 µM.
In the case of `CCNC12CC3CC(CC(C3)C1(C)C)C2`, the EC50 in the data set on Influenza A virus [1], in the data set on Influenza B virus [2], in the data set with Influenza A virus [4] (setting [6]) and in the data set with Influenza B virus [3] was more than 100 µM each time.
Regarding `CC1(C)C2CC3CC(C2)CC1(NCc1ccccc1)C3`, the EC50 with Influenza A virus [1], in the data set with Influenza B virus [2], with Influenza A virus [4] (setting [6]) and in the data set with Influenza B virus [3] was more than 100 µM each time.
Consider `CC1(C)C2CC3CC(C2)CC1(N1CCCCC1)C3`, for which the EC50 with Influenza A virus [1], with Influenza B virus [2], in the data set on Influenza A virus [4] (setting [6]) and in the data set with Influenza B virus [3] was more than 100 µM throughout.
`CN(Cc1ccccc1)C12CC3CC(CC(C3)C1(C)C)C2`: the EC50 in the data set with Influenza A virus [1], in the data set on Influenza B virus [2], in the data set with Influenza A virus [4] (setting [6]) and with Influenza B virus [3] was more than 100 µM in each case.
Turning to `CNC12CC3CC(CC(C3)C1(C)C)C2`, the concentration giving a half-maximal response (EC50) with Influenza A virus [1] is 6 µM; in the data set on Influenza B virus [2] it was more than 100 µM; with Influenza A virus [4] (setting [6]), 10 µM; with Influenza B virus [3], more than 100 µM.
Consider `CCC1(CC)C2CC3CC(C2)CC1(N(C)C)C3`, for which the EC50 with Influenza A virus [1] is 0.7 µM; with Influenza B virus [2], more than 100 µM; with Influenza A virus [4] (setting [6]), 9.6 µM; with Influenza B virus [3], more than 100 µM.
Regarding `NC12CC3CC(CC(C3)C1)C2` [AMANTADINE], the values for the EC50 in the data set on Influenza A virus [1], in the data set on Influenza B virus [2] and with Influenza B virus [3] were 53 µM, more than 100 µM and more than 100 µM, respectively.
Take `CCOC(=O)C1=C[C@@H](OC(CC)CC)[C@H](NC(C)=O)[C@@H](N)C1` [OSELTAMIVIR]: the half-maximal effective concentration (EC50) with Influenza A virus [1] was 21 µM.
For `NC(=O)c1ncn([C@@H]2O[C@H](CO)[C@@H](O)[C@H]2O)n1` [RIBAVIRIN], the EC50 in the data set with Influenza B virus [2] was 8 µM; in the data set with Influenza A virus [4] (mdck), 8.2 µM; in the data set on Influenza B virus [3], 8.1 µM.
`CC(N)C12CC3CC(CC(C3)C1)C2` (centres undefined) [RIMANTADINE]: the EC50 with Influenza A virus [1] is 63 µM; in the data set on Influenza B virus [2], more than 100 µM; in the data set on Influenza B virus [3], more than 100 µM.
Take `CC(=O)N[C@H]1[C@H]([C@H](O)[C@H](O)CO)OC(C(=O)O)=C[C@@H]1NC(=N)N` [ZANAMIVIR]: the EC50 in the data set with Influenza A virus [1] was 6 µM.
